≈ marks a conversion by molar mass, not a printed value.
Experiments:
[1] = system: Rhyzopertha dominica; assay: Insecticidal activity against Rhyzopertha dominica after 24 hr; type: functional
[2] = system: Rhyzopertha dominica; assay: Drug level in Rhyzopertha dominica assessed as cyanide ion level per gram of insect at L99 treated as fumigation after 24 hr by spectrophotometric method; type: ADME, organism-based; conditions: in vivo, other
[3] = system: Musca domestica; assay: Insecticidal activity against Musca domestica (house fly) after 24 hr; type: functional
[4] = system: Musca domestica; assay: Drug level in Musca domestica (house fly) assessed as cyanide ion level per gram of insect at L99 treated topically after 24 hr by spectrophotometric method; type: ADME, organism-based; conditions: in vivo, topical_or_ocular
[5] = system: Musca domestica; assay: Drug level in Musca domestica (house fly) at 1000 ug after 24 hr by spectrophotometric method; type: ADME, organism-based; conditions: in vivo
[6] = system: Musca domestica; assay: Drug level in Musca domestica (house fly) assessed as cyanide ion level per gram of insect at L99 treated as fumigation after 24 hr by spectrophotometric method; type: ADME, organism-based; conditions: in vivo, inhaled_or_intranasal

Row | Structure (SMILES) | LC50 [1] [µg/mL] | Drug uptake [2] [ppm] | LC50 [3] [µg/mL] | Drug uptake [4] [ppm] | Drug uptake [5] [%] | Drug uptake [6] [ppm]
1 | C=CC(O)C#N (centres undefined) | 0.37 (≈ 4.45 µM) | 35 | 0.056 (≈ 0.674 µM) | 52 | 53 | 38
2 | CC(C)(O)C#N [DIMETHYLKETONE CYANOHYDRIN] | 0.4 (≈ 4.7 µM) | 43 | 0.07 (≈ 0.823 µM) | 56 | 53 | 48
3 | C=CC(C#N)OC(C)=O (centres undefined) [1-CYANOALLYL ACETATE] | 0.37 | 33 | 0.26 | 54 | 53 | 39
4 | CCC(C)(O)C#N (centres undefined) [METHYLETHYL KETONE CYANOHYDRIN] | 0.41 (≈ 4.14 µM) |  | 0.09 (≈ 0.908 µM) |  |  | 
5 | COP(=O)(OC)OC=C(Cl)Cl [DICHLORVOS] | 0.29 (≈ 1.31 µM) |  | 0.011 (≈ 0.0498 µM) |  |  | 
6 | CCC(Cl)Cl [DICHLOROPROPANE] | 5.47 (≈ 48.4 µM) |  | 0.9 (≈ 7.97 µM) |  |  | 

— ChEMBL document CHEMBL3046737, “Mode of Action of Cyanohydrins in Insects” (J Pestic Sci, 2005)
